For one assay, the target named is T1, hCA IX (Homo sapiens, UniProt Q16790).
T1 construct: made in house
Briefly: biochemical.

Another assay concerns the target T2, mtCA 03 (Mycobacterium tuberculosis, UniProt P96878).
T2 sequence (P96878 550-764): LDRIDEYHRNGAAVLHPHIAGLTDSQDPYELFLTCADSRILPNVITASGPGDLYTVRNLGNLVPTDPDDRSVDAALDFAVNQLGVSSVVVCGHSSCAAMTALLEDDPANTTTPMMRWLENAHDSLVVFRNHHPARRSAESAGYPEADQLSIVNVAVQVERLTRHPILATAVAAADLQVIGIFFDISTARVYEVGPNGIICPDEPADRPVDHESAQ
The assay can be described thus: biochemical.

The target in a further assay is BpsCAβ (Burkholderia pseudomallei, UniProt Q63Y17). The settings on record: pH 8.3.
The next assay has as its target BpsCAγ (Burkholderia pseudomallei, UniProt Q63SQ4). Particulars: pH 8.3.
The subject of another assay is carbonic anhydrase (CA). Also noted: method as in Lankas & Peter, 1992. The settings on record: in vivo study, ref Lankas & Peter, 1992; cited from earlier work.
A further assay addresses hCA II (Homo sapiens, UniProt P00918). The assay can be described thus: biochemical.
For another assay, the target named is hCA XII (Homo sapiens, UniProt O43570). The assay can be described thus: biochemical.
The target in a further assay is T3, SmCA (Schistosoma mansoni, UniProt A0A4Y5UX87, S271R).
T3 sequence (A0A4Y5UX87 21-298 S271R): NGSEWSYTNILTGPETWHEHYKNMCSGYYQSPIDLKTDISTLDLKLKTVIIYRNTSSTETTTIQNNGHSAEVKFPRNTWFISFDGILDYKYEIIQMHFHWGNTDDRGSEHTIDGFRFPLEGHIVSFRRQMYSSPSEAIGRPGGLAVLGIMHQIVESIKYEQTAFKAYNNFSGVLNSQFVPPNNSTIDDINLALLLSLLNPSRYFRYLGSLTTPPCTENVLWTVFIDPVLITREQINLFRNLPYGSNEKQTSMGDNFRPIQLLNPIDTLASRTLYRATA
The assay can be described thus: biochemical.

The target of a further assay is VhCAα (Vibrio cholerae, UniProt Q9KMP6). Briefly: biochemical.
For the next assay, the target named is T4, SazCA (Sulfurihydrogenibium azorense, UniProt C1DTU5).
T4 sequence (C1DTU5 19-254): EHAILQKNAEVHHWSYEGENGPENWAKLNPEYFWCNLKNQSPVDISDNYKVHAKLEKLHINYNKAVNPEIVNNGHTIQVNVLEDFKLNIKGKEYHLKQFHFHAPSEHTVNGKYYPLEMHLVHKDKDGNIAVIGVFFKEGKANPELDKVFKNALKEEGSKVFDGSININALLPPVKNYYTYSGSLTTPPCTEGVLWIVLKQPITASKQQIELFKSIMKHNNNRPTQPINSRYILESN
The assay can be described thus: biochemical.

In another assay the target is VhCAβ (Vibrio cholerae, UniProt A0A086SLX8). Briefly: biochemical.
The next assay addresses mtCA 02 (Mycobacterium tuberculosis, UniProt P9WPJ9). Briefly: biochemical.
The next assay concerns the target T5, TweCA (Thalassiosira weissflogii, UniProt Q5U9J1).
T5 sequence (Q5U9J1 1-281): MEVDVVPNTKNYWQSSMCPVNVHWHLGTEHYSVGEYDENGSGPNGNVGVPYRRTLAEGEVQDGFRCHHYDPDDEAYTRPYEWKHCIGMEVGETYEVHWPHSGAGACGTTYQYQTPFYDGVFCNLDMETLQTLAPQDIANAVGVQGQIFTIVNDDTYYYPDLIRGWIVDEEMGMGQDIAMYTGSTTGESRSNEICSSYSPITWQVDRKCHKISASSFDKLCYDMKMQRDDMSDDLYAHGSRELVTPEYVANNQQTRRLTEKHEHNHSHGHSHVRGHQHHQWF
Briefly: biochemical.

For the next assay, the target named is hCA I (Homo sapiens, UniProt P00915). Briefly: Stopped-flow CO2-hydration assay, hCA I.

The term Ki denotes the equilibrium dissociation constant of an inhibitor or competing ligand from its target. Low readings indicate a stronger hold on the target, high ones a looser hold on the target.

Sequence of BpsCAβ (Q63Y17 1-256): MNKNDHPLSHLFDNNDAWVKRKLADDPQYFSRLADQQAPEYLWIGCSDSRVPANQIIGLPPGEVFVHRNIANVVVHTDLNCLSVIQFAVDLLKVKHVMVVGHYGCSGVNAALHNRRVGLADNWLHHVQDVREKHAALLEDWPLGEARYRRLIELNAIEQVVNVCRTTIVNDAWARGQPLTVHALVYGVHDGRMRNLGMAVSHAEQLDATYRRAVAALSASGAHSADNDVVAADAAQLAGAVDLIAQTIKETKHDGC
Sequence of mtCA 02 (P9WPJ9 whole entry, looked up): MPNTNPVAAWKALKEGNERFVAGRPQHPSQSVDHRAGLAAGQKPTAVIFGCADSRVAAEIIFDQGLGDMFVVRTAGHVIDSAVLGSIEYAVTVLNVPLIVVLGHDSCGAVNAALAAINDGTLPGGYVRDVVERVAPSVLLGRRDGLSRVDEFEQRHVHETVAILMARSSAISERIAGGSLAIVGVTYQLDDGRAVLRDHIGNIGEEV
Sequence of BpsCAγ (Q63SQ4 1-174): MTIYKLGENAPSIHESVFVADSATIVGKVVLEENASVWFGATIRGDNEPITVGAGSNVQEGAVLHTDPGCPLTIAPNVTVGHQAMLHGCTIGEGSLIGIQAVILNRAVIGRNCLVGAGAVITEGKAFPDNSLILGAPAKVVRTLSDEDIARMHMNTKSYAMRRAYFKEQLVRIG
Sequence of VhCAα (Q9KMP6 entry or part of it): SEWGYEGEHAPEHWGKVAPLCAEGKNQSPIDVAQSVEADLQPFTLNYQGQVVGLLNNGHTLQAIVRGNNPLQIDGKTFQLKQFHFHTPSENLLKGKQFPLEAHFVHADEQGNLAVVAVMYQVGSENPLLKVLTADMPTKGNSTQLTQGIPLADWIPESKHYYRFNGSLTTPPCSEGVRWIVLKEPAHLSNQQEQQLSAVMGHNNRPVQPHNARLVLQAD
Sequence of VhCAβ (A0A086SLX8 entry or part of it): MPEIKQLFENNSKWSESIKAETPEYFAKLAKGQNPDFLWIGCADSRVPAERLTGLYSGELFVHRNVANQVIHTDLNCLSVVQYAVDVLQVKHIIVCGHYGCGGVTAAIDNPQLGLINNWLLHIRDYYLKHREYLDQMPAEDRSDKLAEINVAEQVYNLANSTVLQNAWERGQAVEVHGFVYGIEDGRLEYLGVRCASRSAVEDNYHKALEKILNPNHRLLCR
Sequence of hCA XII (O43570 25-354): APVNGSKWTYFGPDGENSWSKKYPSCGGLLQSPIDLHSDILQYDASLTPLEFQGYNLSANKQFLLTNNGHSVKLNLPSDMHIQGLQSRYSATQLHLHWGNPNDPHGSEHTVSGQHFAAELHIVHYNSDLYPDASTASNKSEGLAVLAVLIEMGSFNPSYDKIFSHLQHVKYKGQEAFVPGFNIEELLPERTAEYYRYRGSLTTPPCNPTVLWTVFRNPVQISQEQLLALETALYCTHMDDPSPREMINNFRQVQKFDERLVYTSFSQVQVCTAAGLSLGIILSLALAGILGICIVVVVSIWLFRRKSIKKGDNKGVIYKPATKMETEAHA
Sequence of hCA I (P00915 whole entry): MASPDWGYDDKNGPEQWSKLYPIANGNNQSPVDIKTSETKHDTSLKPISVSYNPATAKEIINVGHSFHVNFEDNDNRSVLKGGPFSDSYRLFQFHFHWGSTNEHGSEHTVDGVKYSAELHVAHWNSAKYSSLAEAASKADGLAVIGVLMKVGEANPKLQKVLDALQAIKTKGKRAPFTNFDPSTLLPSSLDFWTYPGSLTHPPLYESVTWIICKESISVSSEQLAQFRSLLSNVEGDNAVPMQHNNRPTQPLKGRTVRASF

Take `Nc1cc(C(Cl)=C(Cl)Cl)c(S(N)(=O)=O)cc1S(N)(=O)=O` [Clorsulon, 4-Amino-6-(1,2,2-trichlorovinyl)benzene-1,3-disulfonamide]: the inhibition constant Ki turned out to be 138 nM on hCA IX; 828 nM on mtCA 03; 223 nM at BpsCAβ; 2500 nM at BpsCAγ; 59.1 nM on hCA II; 78 nM on hCA XII. In addition, the Ki on SmCA is 225 nM; at VhCAα it was 292 nM; on SazCA, 7.7 nM; on VhCAβ, 906 nM; at mtCA 02, 2.9 nM; at TweCA, 95.8 nM. This compound came in with a Ki at hCA I of 4520 nM. Further, the “carbonic anhydrase (CA) inhibitory activity in rats” value in the assay on carbonic anhydrase (CA) was “weak”.

Values taken from PMC8900822 (Acta Crystallographica. Section D, Structural Biology, 2022).
